For assay [1], the system named is Bird Cherry-Oat Aphid (Rhopalosiphum padi). Put plainly: Activity against bird cherry-oat aphid (sprayed barley leaf disks). The format is in vivo. To be noted: foliar, 120 h. On the procedure: B.6. Activity Against Bird Cherry-Oat Aphid Aphid (Rhopalosiphum padi)
The active compounds were formulated in 1:3 DMSO:water. Barley leaf disks were placed into microtiterplates filled with 0.8% agar-agar and 2.5 ppm OPUS™. The leaf disks were sprayed with 2.5 μl of the test solution and 5 to 8 adult aphids were placed into the microtiterplates which were then closed and kept at 19-22° C. and 35-45% under fluorescent light for 5 days. Mortality was assessed on the basis of vital, reproduced aphids. Tests were replicated 2 times.

For assay [2], the system named is Yellowfever Mosquito (Aedes aegyptii). Nature of the assay: Activity via glass contact (treated glass vials). The format is in vivo. Particulars: read-out: mortality against yellowfever mosquito. An excerpt: B.7. Activity Against Argentine Ant (Linepithema humile), Harvester Ant (Pogonomyrmex californicus), Acrobat Ant (Crematogaster spp.), Carpenter Ant (Camponotus floridanus), Fire Ant (Solenopsis invicta), House Fly (Musca domestica), Stable Fly (Stomoxys calcitrans), Flesh Fly (Sarcophaga sp.), Yellowfever Mosquito (Aedes aegyptii), House Mosquito (Culex quinquefasciatus), Malaria Mosquito (Anopheles albimanus), German Cockroach (Blattella Germanica), Cat Flea (Ctenocephalides felis), and Brown Dog Tick (Rhipicephalus sanguineus) Via Glass Contact
Glass vials were treated with 0.5 ml of a solution of active ingredient in acetone and allowed to dry. Insects or ticks were placed into each vial together with some food and moisture supply.

For orientation: mortality means the share of the test organisms that died. Compound `N#CC(C#N)(CCC(F)(F)F)Cc1cccc2nsnc12` [I.1, 2-benzo[1,2,5]thiadiazol-4-ylmethyl-2-(3,3,3-trifluoropropyl)-malononitrile] yielded a mortality at 300 ppm in assay [1] greater than 90%. Further, the mortality at 10 ppm in assay [2] is greater than 75%.

The values are drawn from US20090136551A1, “Substituted Dicyanoalkanes For Combating Animal Pests” (BASF AKTIENGESELLSCHAFT, priority 2005, published 2009).
